Tested on: Transport facilitation protein genes
Test: DNA chip mRNA expression in yeast, transport facilitation protein genes (Table 5)
Format: cell-based, Saccharomyces cerevisiae S288C
How it was run: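 Expression change after 2 h toxicant exposure (growth-inhibiting, sub-lethal) of log-phase S. cerevisiae S288C at 25° C. Oligo-dT-purified mRNA was labeled with Cy3-dUTP or Cy5-dUTP and hybridized >12 h at 65° C. to a genome-wide chip; ratio of scanned fluorescence to control.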

## S=C([S-])NCCNC(=S)[S-].[Zn+2] [(11), zinc N,N′-ethylenebis(dithiocarbamate)]
Yeast gene YBL030C
  The level of expressed mRNA in the presence of chemical substance/The level of expressed mRNA in the absence of chemical substance: 1.1
Yeast gene YBL099W
  The level of expressed mRNA in the presence of chemical substance/The level of expressed mRNA in the absence of chemical substance: 2.1
Yeast gene YBR052C
  The level of expressed mRNA in the presence of chemical substance/The level of expressed mRNA in the absence of chemical substance: 1.7
Yeast gene YBR068C
  The level of expressed mRNA in the presence of chemical substance/The level of expressed mRNA in the absence of chemical substance: 0.8
Yeast gene YBR127C
  The level of expressed mRNA in the presence of chemical substance/The level of expressed mRNA in the absence of chemical substance: 1.1
Yeast gene YBR132C
  The level of expressed mRNA in the presence of chemical substance/The level of expressed mRNA in the absence of chemical substance: 1.9
Yeast gene YBR207W
  The level of expressed mRNA in the presence of chemical substance/The level of expressed mRNA in the absence of chemical substance: 1.1
Yeast gene YBR293W
  The level of expressed mRNA in the presence of chemical substance/The level of expressed mRNA in the absence of chemical substance: 1.1
Yeast gene YBR294W
  The level of expressed mRNA in the presence of chemical substance/The level of expressed mRNA in the absence of chemical substance: 1.2
Yeast gene YBR295W
  The level of expressed mRNA in the presence of chemical substance/The level of expressed mRNA in the absence of chemical substance: 1.1
Yeast gene YBR298C
  The level of expressed mRNA in the presence of chemical substance/The level of expressed mRNA in the absence of chemical substance: 1.5
Yeast gene YCL025C
  The level of expressed mRNA in the presence of chemical substance/The level of expressed mRNA in the absence of chemical substance: 1.0
Yeast gene YCL038C
  The level of expressed mRNA in the presence of chemical substance/The level of expressed mRNA in the absence of chemical substance: 2.0
Yeast gene YCR024C-A
  The level of expressed mRNA in the presence of chemical substance/The level of expressed mRNA in the absence of chemical substance: 1.5
Yeast gene YCR037C
  The level of expressed mRNA in the presence of chemical substance/The level of expressed mRNA in the absence of chemical substance: 0.8
Yeast gene YCR098C
  The level of expressed mRNA in the presence of chemical substance/The level of expressed mRNA in the absence of chemical substance: 1.3
Yeast gene YDL128W
  The level of expressed mRNA in the presence of chemical substance/The level of expressed mRNA in the absence of chemical substance: 1.2
Yeast gene YDL198C
  The level of expressed mRNA in the presence of chemical substance/The level of expressed mRNA in the absence of chemical substance: 2.5
Yeast gene YDL210W
  The level of expressed mRNA in the presence of chemical substance/The level of expressed mRNA in the absence of chemical substance: 0.6
Yeast gene YDL245C
  The level of expressed mRNA in the presence of chemical substance/The level of expressed mRNA in the absence of chemical substance: 1.5
Yeast gene YDR038C
  The level of expressed mRNA in the presence of chemical substance/The level of expressed mRNA in the absence of chemical substance: 0.9
Yeast gene YDR039C
  The level of expressed mRNA in the presence of chemical substance/The level of expressed mRNA in the absence of chemical substance: 0.9
Yeast gene YDR086C
  The level of expressed mRNA in the presence of chemical substance/The level of expressed mRNA in the absence of chemical substance: 1.1
Yeast gene YDR270W
  The level of expressed mRNA in the presence of chemical substance/The level of expressed mRNA in the absence of chemical substance: 1.0
Yeast gene YDR298C
  The level of expressed mRNA in the presence of chemical substance/The level of expressed mRNA in the absence of chemical substance: 1.2
Yeast gene YDR342C
  The level of expressed mRNA in the presence of chemical substance/The level of expressed mRNA in the absence of chemical substance: 2.9
Yeast gene YDR343C
  The level of expressed mRNA in the presence of chemical substance/The level of expressed mRNA in the absence of chemical substance: 2.3
Yeast gene YDR345C
  The level of expressed mRNA in the presence of chemical substance/The level of expressed mRNA in the absence of chemical substance: 1.5
Yeast gene YDR387C
  The level of expressed mRNA in the presence of chemical substance/The level of expressed mRNA in the absence of chemical substance: 2.0
Yeast gene YDR497C
  The level of expressed mRNA in the presence of chemical substance/The level of expressed mRNA in the absence of chemical substance: 0.7
Yeast gene YEL027W
  The level of expressed mRNA in the presence of chemical substance/The level of expressed mRNA in the absence of chemical substance: 0.9
Yeast gene YEL063C
  The level of expressed mRNA in the presence of chemical substance/The level of expressed mRNA in the absence of chemical substance: 0.8
Yeast gene YEL065W
  The level of expressed mRNA in the presence of chemical substance/The level of expressed mRNA in the absence of chemical substance: 0.6
Yeast gene YER053C
  The level of expressed mRNA in the presence of chemical substance/The level of expressed mRNA in the absence of chemical substance: 2.4
Yeast gene YER119C
  The level of expressed mRNA in the presence of chemical substance/The level of expressed mRNA in the absence of chemical substance: 2.2
Yeast gene YFL011W
  The level of expressed mRNA in the presence of chemical substance/The level of expressed mRNA in the absence of chemical substance: 2.1
Yeast gene YFL041W
  The level of expressed mRNA in the presence of chemical substance/The level of expressed mRNA in the absence of chemical substance: 0.9
Yeast gene YFL050C
  The level of expressed mRNA in the presence of chemical substance/The level of expressed mRNA in the absence of chemical substance: 1.2
Yeast gene YFL054C
  The level of expressed mRNA in the presence of chemical substance/The level of expressed mRNA in the absence of chemical substance: 1.7
Yeast gene YFL055W
  The level of expressed mRNA in the presence of chemical substance/The level of expressed mRNA in the absence of chemical substance: 2.7
Yeast gene YGL006W
  The level of expressed mRNA in the presence of chemical substance/The level of expressed mRNA in the absence of chemical substance: 0.8
Yeast gene YGL008C
  The level of expressed mRNA in the presence of chemical substance/The level of expressed mRNA in the absence of chemical substance: 0.7
Yeast gene YGL104C
  The level of expressed mRNA in the presence of chemical substance/The level of expressed mRNA in the absence of chemical substance: 1.8
Yeast gene YGL167C
  The level of expressed mRNA in the presence of chemical substance/The level of expressed mRNA in the absence of chemical substance: 0.8
Yeast gene YGL255W
  The level of expressed mRNA in the presence of chemical substance/The level of expressed mRNA in the absence of chemical substance: 0.5
Yeast gene YGR055W
  The level of expressed mRNA in the presence of chemical substance/The level of expressed mRNA in the absence of chemical substance: 1.5
Yeast gene YGR065C
  The level of expressed mRNA in the presence of chemical substance/The level of expressed mRNA in the absence of chemical substance: 1.1
Yeast gene YGR082W
  The level of expressed mRNA in the presence of chemical substance/The level of expressed mRNA in the absence of chemical substance: 1.3
Yeast gene YGR096W
  The level of expressed mRNA in the presence of chemical substance/The level of expressed mRNA in the absence of chemical substance: 0.8
Yeast gene YGR138C
  The level of expressed mRNA in the presence of chemical substance/The level of expressed mRNA in the absence of chemical substance: 0.7
Yeast gene YGR191W
  The level of expressed mRNA in the presence of chemical substance/The level of expressed mRNA in the absence of chemical substance: 1.6
Yeast gene YGR197C
  The level of expressed mRNA in the presence of chemical substance/The level of expressed mRNA in the absence of chemical substance: 1.1
Yeast gene YGR224W
  The level of expressed mRNA in the presence of chemical substance/The level of expressed mRNA in the absence of chemical substance: 0.8
Yeast gene YGR260W
  The level of expressed mRNA in the presence of chemical substance/The level of expressed mRNA in the absence of chemical substance: 1.3
Yeast gene YGR281W
  The level of expressed mRNA in the presence of chemical substance/The level of expressed mRNA in the absence of chemical substance: 0.7
